Several values for one entry are separate records, joined by “and”; a condition that tells them apart may be missing. Equal values may be shown once.
Tests used:
[1] = Antiproliferative activity against rat HSC-T6 cells after 48 hrs by MTT assay; type: functional, cell-based
Hepatocyte = experiment: Cytotoxicity against rat hepatocytes at 10 to 100 uM; type: cell-based
[2] = Rattus norvegicus, HSC-T6, 48 h

Row | SMILES | IC50 [1, 2] [µM] | Activity (Hepatocyte) | IC50 ([1]; hsc-t6)
1 | COc1ccc2c(ccc3cc(OC)c(O)c(OC)c32)c1 | > 100 | Non-toxic | 
2 | COc1ccc2c(c1)CCc1c(-c3c(O)c(OC)c(OC)c4c3CCc3cc(OC)ccc3-4)c(O)c(OC)c(OC)c1-2 | 88.2 | Non-toxic | 
3 | COc1cc(O)c2c(c1)CCc1cccc(O)c1-2 | > 100 | Non-toxic | 
4 | COc1ccc2c(ccc3cc(O)c(OC)c(OC)c32)c1O | 54.1 | Non-toxic | 
5 | COc1ccc2c(c1O)CCc1cc(O)c(OC)c(OC)c1-2 | 35.7 | Non-toxic | 
6 | COc1cc2cc(O)c(O)c(OC)c2c2c(O)cccc12 | 9 | Non-toxic | 
7 | COc1ccc2c(c1)CCc1cc(OC)c(O)c(OC)c1-2 | > 100 | Non-toxic | 
8 | COc1ccc2c(c1)CCc1cc(O)c(OC)c(OC)c1-2 | > 100 | Non-toxic | 
9 | COc1c(O)cc2ccc3cccc(O)c3c2c1OC | > 100 | Non-toxic | 
10 | COc1cc2ccc3cccc(O)c3c2c(OC)c1O [BULBOPHYLLANTHRIN] | 50.9 | Non-toxic | 
11 | COc1ccc2c(c1)CCc1cc(O)cc(OC)c1-2 [COELONIN] |  | Non-toxic | 13.4 µM and 69.1 µM
12 | COC1=CC(=O)c2ccc3cc(OC)cc(O)c3c2C1=O [DENBINOBIN] | 15.2 | Non-toxic | 
13 | COc1cc2c(c(O)c1OC)-c1ccc(O)cc1CC2 [EPHEMERANTHOL A] | 79.2 | Non-toxic | 
14 | O=C(O[C@@H]1Cc2c(O)cc(O)cc2O[C@@H]1c1cc(O)c(O)c(O)c1)c1cc(O)c(O)c(O)c1 [EPIGALOCATECHIN GALLATE] | 9.9 |  | 
15 | COc1c(O)cc2c(c1OC)-c1ccc(O)cc1CC2 [ERIANTHRIDIN] | 73.2 | Non-toxic | 
16 | COc1c(O)c(O)cc2ccc3cccc(O)c3c12 [FIMBRIOL B] | 11 | Non-toxic | 
17 | COc1cc(O)c2c(c1)CCc1cc(O)ccc1-2 [LUSIANTHRIDIN] | 61.2 | Non-toxic | 
18 | COc1c(O)cc2ccc3cc(O)ccc3c2c1OC [NUDOL] | > 100 | Non-toxic | 
19 | COc1c(OC)c2cc(O)cc(OC)c2c2c(O)cccc12 [PLICATOL A] | > 100 | Non-toxic | 

Reference: ChEMBL document CHEMBL1141443, “Antifibrotic phenanthrenes of Dendrobium nobile stems” (J Nat Prod, 2007)
